Laboratory results from article PMC6383986, “Fragment-Based Covalent Ligand Screening Enables Rapid Discovery of Inhibitors for the RBR E3 Ubiquitin Ligase HOIP” (Journal of the American Chemical Society, 2019).
Entries after “also recorded” stand apart in the source; their conditions may differ.

Legend:
HOIP RBR domain [1] = target: T1, HOIP RBR domain (Homo sapiens, UniProt Q96EP0); assay: Protein LC-MS compound screening of analogs; format: binding; conditions: 2 μM protein, 0.5, 4, 24 h; for labeling of HOIP RBR domain relative to hit (5): 20 μM compound (10-fold excess)
T1 construct: made in house; host or cells: E. coli BL21-GOLD(DE3)
T1 sequence (Q96EP0 697-1072): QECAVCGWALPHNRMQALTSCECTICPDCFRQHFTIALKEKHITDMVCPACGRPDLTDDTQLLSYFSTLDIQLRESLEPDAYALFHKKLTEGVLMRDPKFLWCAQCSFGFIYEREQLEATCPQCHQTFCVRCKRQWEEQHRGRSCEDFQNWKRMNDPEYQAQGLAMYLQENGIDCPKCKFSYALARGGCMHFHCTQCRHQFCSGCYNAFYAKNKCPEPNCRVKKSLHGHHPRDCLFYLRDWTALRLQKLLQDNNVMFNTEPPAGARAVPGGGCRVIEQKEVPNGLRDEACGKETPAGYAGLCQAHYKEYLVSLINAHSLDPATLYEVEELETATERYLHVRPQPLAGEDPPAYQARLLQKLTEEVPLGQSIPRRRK
Protocol: of (1) and 3 mM stock solution of (5) in DMSO, giving a final concentration of 6 and 30 µM respectively, and 1% DMSO).
The UbcH5c and UbcH7 E2 enzymes were diluted with buffer to afford new stock solutions at 10 µM, of which 25 µL was used for each sample (final concentration 5 µM, 85-91 µg/mL), together with 24.5 µL buffer and 0.5 µL compound solution (1 mM stock solution of (1) and 5 mM stock solution of (5) in DMSO, giving a final concentration of 10 and 50 µM respectively, and 1% DMSO).
The E1 enzyme was diluted with buffer to afford a new stock solution at 2 µM, of which 25 µL was used for each sample (final concentration 1 µM, 120 µg/mL), together with 24.5 µL buffer and 0.5 µL compound solution (200 µM stock solution of (1) and 1 mM stock solution of (5) in DMSO, giving a final concentration of 2 and 10 µM respectively, and 1% DMSO).
Protocol as described above, using the HOIP RBR (stock solutions around 300 µM) in buffer (50 mM HEPES, 150 mM NaCl, pH 7.5) to afford a new stock solution at 4 µM of which 25 µL was used for each sample (final concentration 2 µM, 87 µg/mL), together with 24.5 µL buffer and 0.5 µL compound solution (2 mM stock solutions in DMSO, giving a final concentration of 20 µM, and 1% DMSO). The samples were analyzed after 0.5, 4, and 24 h incubation.
Supplementary Figure S7. TIC traces of deconvoluted protein masses from the screening of analogues to hit compound (5). The HOIP RBR (2 µM; MW = 43398 g/mol) was incubated with […]
compound (17) and aliquots were analyzed after 0.5, 4, and 24 h incubation. The data was used for the generation of the heat map in Figure 5A.
(1 picture or pasted object on this page, not shown here)

[2] = test system: NF-κB activation in HEK293T cells overexpressing full length HOIP, HOIL-1L, and SHARPIN; assay: NF-κB Luciferase reporter assay; format: cell-based; conditions: overnight (17 h) treatment
Protocol: suspensions were agitated at 4 °C overnight. The supernatants were removed and kept on ice, and the beads were washed with wash buffer (2 × 0.5 mL), PBS (2 × 0.5 mL), and 50 mM HEPES, 150 mM NaCl, pH 7.5 buffer (2 × 0.5 mL).
A polyubiquitination assay master mix was prepared by mixing E1, UbcH7, ubiquitin, MgCl2, in buffer (50 mM HEPES, 150 mM NaCl, pH 7.5). The solution (30 µL per sample) was added to the beads, and lastly ATP (0.6 µL of 100 mM stock) was added to initiate the reaction. Final concentrations were E1 (0.2 µM), UbcH7 E2 (1 µM), ubiquitin (10 µM), MgCl2 (4 mM), ATP (2 mM). The vials were incubated (Eppendorf Thermomixer) at 25 °C, 900 rpm for 1.5 h. […] All samples were analyzed by SDS PAGE and Western Blot (Figure 6C and Supplementary Figure S13) as described in sections 4.5 and 4.6. […]
(§1) Reporter assays: After incubating the plates for 17 h, Firefly and Renilla Luciferase activity was analyzed using the Dual-Luciferase® Reporter Assay System (Promega) and a BertholdTech […]
(§2) with Mikrowin 2000 software version 4.41: using its injectors to inject 100 µL LAR II and 100 µL Stop&Glo (see manufacturer’s instructions; Promega #E1960). NF-κB regulated luciferase activity was first normalized to Renilla luciferase activity and then the fold activation relative to cells transfected with empty vector calculated. […]
reader. […]

[3] = test system: HEK293T cells overexpressing full-length HOIP, HOIL-1L, and SHARPIN; assay: CellTiter-Glo Luminescent cell viability assay, transfected cells; format: cell-based; conditions: 17 h
Protocol: Thurston, Imperial College London. 2.3 × 10^6 cells were seeded into 100 mm Petri dishes in DMEM media supplemented with 10% v/v FBS (Biosera) and 1% v/v L-glutamine/penicillin/streptomycin (Sigma-Aldrich) and incubated at 37 °C overnight. The following morning the cells were transfected using either 6 µg pcDNA3 or 4.5 µg HOIP, 0.3 µg HOIL-1L and 1.2 µg SHARPIN as well as 450 ng pRDII Luc and 180 ng pRLTK (Promega) plasmids. 7 h after transfection, the cells were trypsinized and re-suspended in DMEM media supplemented with 1% v/v FBS (Biosera) and 1% v/v L-glutamine/penicillin/streptomycin (Sigma-Aldrich). […]
as §1, §2
Cell viability assays: After incubating the plates for 17 h in the presence of compound, cell viability was determined using the CellTiter-Glo® Luminescent Cell Viability Assay according to manufacturer’s instructions (Promega #G7571). […]

HOIP RBR domain [4] = target: T1, HOIP RBR domain; assay: In vitro polyubiquitination assay; format: biochemical; conditions: HOIP RBR preincubated with compound (200 μM) overnight; E2 UbcH7 or UbcH5c; vs DMSO
Protocol: 4.3 Polyubiquitination assay
The ubiquitination assay was essentially carried out as previously described.12 The HOIP RBR domain was pre-incubated with compounds (5) or (6), or DMSO in 50 mM HEPES, 150 mM NaCl, pH 7.5 buffer at 23 °C with gentle shaking for overnight (20-24 h). E1, E2 (UbcH7 or UbcH5c), ubiquitin, and MgCl2 were added to each vial, and aliquots of 15 µL were withdrawn to mark time zero. ATP was then added and aliquots of 15 µL were withdrawn after 5, 15, 30, and 60 min incubation. Final concentrations: E1 (1 µM), E2 (5 µM), E3 (5 µM), compounds (200 µM), DMSO (1%), ubiquitin (40 µM), MgCl2 (20 mM), ATP (10 mM); reaction volume 100 µL. The aliquots were analyzed by SDS PAGE (Figure 4A and Supplementary Figure S9) as described below (section

Compound	labeling of HOIP RBR domain relative to hit (5) (HOIP RBR domain [1])	also measured
COC(=O)CCCNC(=O)c1cc2c([nH]c1=O)CCCC2 [Compound 17]		labeling of HOIP RBR domain (HOIP RBR domain [1]; 200 μM compound): abolished activity; effect on NF-κB activity [2]: no effect on NF-κB activity; effect on cell viability [3]: neither compound had any effect on cell viability
COC(=O)CCCNC(=O)c1cc2c([nH]c1=O)CCC2 [Compound 6]	abolished activity	polyubiquitin chain formation (HOIP RBR domain [4]): no inhibitory effect; also recorded: no effect on catalytic activity
COC(=O)/C=C/CNC(C)=O [Compound 10]	significantly lower activity	

Now from value to molecule, other results behind:

labeling of HOIP RBR domain relative to hit (5) (HOIP RBR domain [1])	Compound	also measured
significantly lower activity	COC(=O)/C=C/CCNC(=O)c1cc2c([nH]c1=O)CCC2 [Compound 9]	
inactive	COC(=O)/C=C/CNC(=O)c1ccc(-c2ccccc2)[nH]c1=O [Compound 11i]	
